Measurements published in PubChem BioAssay (NCI).
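Cells were grown in 96-well plates and exposed to each compound for 48 hours at five concentrations; endpoints were interpolated linearly between bracketing concentrations, or set to the highest concentration if not reached. GI50 marks 50% less growth. TGI is the concentration that stops growth completely.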

Key:
Assay in all cases: NCI tumour cell line growth inhibition, 48 h
A498 renal = tested on: A498 renal
BT-549 breast = tested on: BT-549 breast
COLO 205 colon = tested on: COLO 205 colon
NCI/ADR-RES ovarian = tested on: NCI/ADR-RES ovarian
SK-MEL-5 melanoma = tested on: SK-MEL-5 melanoma
SN12C renal = tested on: SN12C renal
TK-10 renal = tested on: TK-10 renal

Row | SMILES | GI50 (A498 renal) [nM] | TGI (A498 renal) [µM] | GI50 (BT-549 breast) [µM] | TGI (BT-549 breast) [µM] | GI50 (COLO 205 colon) [µM] | TGI (COLO 205 colon) [µM] | GI50 (NCI/ADR-RES ovarian) [µM] | TGI (NCI/ADR-RES ovarian) [µM] | GI50 (SK-MEL-5 melanoma) [nM] | TGI (SK-MEL-5 melanoma) [µM] | GI50 (SN12C renal) [µM] | TGI (SN12C renal) [µM] | GI50 (TK-10 renal) [µM] | TGI (TK-10 renal) [µM]
1 | CCCCCC[C@H](C)NC(=O)c1ccc(Nc2nc3ccccc3c3occc23)cc1 | 2740 | 7.54 | 2.79 | 6.54 | 3.07 | 8.45 | 2.48 | 6.99 | 2240 | 5.24 | 24.5 | 97.3 | 5.26 | 33.5
2 | N#CC1C(=O)NC(c2ccccc2[N+](=O)[O-])c2sc3c(F)cccc3c21 (configuration not stated) | 561 | 2.06 | 14.9 | 61.5 | 8.05 | 58.4 | 8.06 | 39.8 | 14300 | 33.8 | 16.4 | > 96.3 | 11.5 | 60.6
3 | COC(=O)[C@]12CC[C@@H](C)[C@H](C)[C@@H]1C1=CC[C@@H]3[C@@]4(C)C(C=O)=C[C@@](C)(COC(=O)/C=C/c5ccccc5)[C@@H]4[C@H](O)C[C@@]3(C)[C@]1(C)CC2 | 4800 | 23.7 | 6.05 | 63.9 | 2.3 | 5.33 | 3.64 | 19.1 | 2200 | 5.92 | 3.8 | 26.5 | 6.74 | 39.3
4 | COCc1c(-c2ccc(NC(=O)Nc3cc(C(F)(F)F)ccc3F)c(F)c2)c2c(N)ncnn2c1CN1CCOCC1 | 16.6 | 0.248 | 0.776 | 6.13 | 1.05 | 2.71 | 3.12 | > 10 | 2490 | > 10 | 1.39 | > 10 | 1.29 | 7.53
5 | COc1ccc2c(c1)C(=O)c1c-2c(Nc2cccc(C(C)=O)c2)nc2ccccc12 | 3090 | 15 | 9.68 | 21.4 | 37.9 | > 100 | 8.66 | 28.3 | 5220 | 18.9 | 10.3 | 40.1 | 24.8 | 65
6 | C=CCc1c(O)c(C(=O)/C=C/c2ccccc2)c(OC)c2ccoc12 | 1740 | 9.4 | 2.63 | 8.09 | 5.96 | 18.1 | 1.88 | 4.91 | 2660 | 10.9 | 3.79 | 14.1 | 4.96 | 17.3
7 | CCn1ccc(NS(=O)(=O)c2ccc(N)cc2)nc1=O | > 100000 | > 100 | > 100 | > 100 | > 100 | > 100 | > 100 | > 100 | > 100000 | > 100 | > 100 | > 100 | > 100 | > 100
8 | COc1ccc(/C=C2\c3cc(OC)c(OC)c(OC)c3CC[C@@H]2O)cc1F | 152 | 0.697 | 0.443 | 42.7 | 1.03 | 7.59 | 0.196 | 1.31 | 234 | 17.2 | 0.949 | > 100 | – | –
9 | COc1cc(/C=C/C(=O)c2c(C)nc3ccccc3c2C)ccc1OCCCN1CCN(C(=O)c2ccco2)CC1 | 4140 | 17.7 | 4.86 | 23.3 | 11 | 23 | 5.55 | 45.2 | 2120 | 12.6 | 11 | 28.7 | 15.3 | 30
10 | COc1cnc2c(c1)C(=O)c1c-2n(CCCN2CCNCC2)c(=O)c2cc([N+](=O)[O-])ccc12 | 86.3 | 2.19 | 1.4 | 9.7 | 0.0617 | 1.79 | 1.11 | 2.8 | 403 | 1.62 | – | – | 1.11 | 2.39
11 | COCCn1cc(-c2csc(-c3c[nH]c4ccc(Br)cc34)n2)c2cccnc21 | 3020 | 15.9 | 4.8 | 27 | 3.22 | 34 | 2.86 | > 100 | 3240 | 11.7 | 7.72 | > 100 | – | –
12 | O=C(O)Cc1cccc2c(=O)c3cccc([N+](=O)[O-])c3oc12 | – | > 100 | – | > 100 | – | > 100 | – | – | – | > 100 | – | > 100 | – | > 100
13 | O=C(O[C@H]1CCN2C[C@H]3C[C@H](CN4C(=O)CCC[C@H]34)[C@@H]2C1)c1ccc(O)cc1 | – | > 100 | – | > 100 | – | > 100 | – | – | – | – | – | > 100 | – | > 100
14 | COc1cc(/C=C2\C[C@H]3[C@@H]4CC=C5C[C@@H](OC(C)=O)CC[C@]5(C)[C@H]4CC[C@]3(C)[C@H]2OC(C)=O)ccc1OCCN1CCCC1 | – | – | – | – | 13.3 | > 50 | 10.2 | 20.6 | 6970 | 15.1 | 7.79 | 15.7 | 9.07 | 19.7
15 | CSc1ccc(C(=O)/C=C/c2ccccc2Cl)cc1 | – | – | 15.4 | 32.9 | 33.5 | > 100 | 18.9 | 40.1 | 16700 | 31.6 | 17.3 | 32.7 | 18.4 | 41.5
16 | CC1=C([Se]CC(OC(=O)[C@@H](CO)NC(=O)OC(C)(C)C)C(=O)NCCCCCC(=O)OCc2ccccc2)C(=O)c2ccccc2C1=O (some centres not stated) | 2020 | 5.93 | 1.73 | 3.11 | 1.82 | 3.35 | – | – | 1590 | 2.96 | 1.95 | 3.59 | 2.04 | 3.47
17 | CCC[CH2][Pb]([Cl])([CH2]CCC)[CH2]CCC | 48.3 | 0.148 | 0.031 | 0.137 | 0.0194 | 0.0358 | – | – | 53.4 | 0.128 | 0.0152 | 0.0294 | 0.0317 | 0.0913
18 | CCCCCCCC(=O)[O][Hg][CH2]C1COC([CH2][Hg][O]C(=O)CCCCCCC)CO1 (configuration not stated) | – | – | 11.1 | 23.1 | 3.72 | 14.6 | 20.2 | 49.6 | 11000 | 28.8 | 15.7 | 30.5 | 19.6 | 33.7
